Reference: the NIST ThermoML archive (doi:10.1016/j.jct.2006.07.022)

Assay: xn = mol fraction of the nth substance listed
Conditions: 101 kPa, Liquid

CN(C)C=O [dimethylformamide] + c1ccccc1
Conditions | mass density [kg/m3]
293.15 K, x2 = 0 | 948.58
293.15 K, x2 = 0.0785 | 943.13
293.15 K, x2 = 0.1347 | 939.28
293.15 K, x2 = 0.2036 | 934.59
293.15 K, x2 = 0.2699 | 930.11
293.15 K, x2 = 0.3352 | 925.71
293.15 K, x2 = 0.4034 | 921.13
293.15 K, x2 = 0.4874 | 915.49
293.15 K, x2 = 0.5432 | 911.72
293.15 K, x2 = 0.6044 | 907.55
293.15 K, x2 = 0.6705 | 903
293.15 K, x2 = 0.7413 | 898.06
293.15 K, x2 = 0.8056 | 893.49
293.15 K, x2 = 0.871 | 888.73
293.15 K, x2 = 0.9214 | 884.99
293.15 K, x2 = 0.9785 | 880.66
303.15 K, x2 = 0 | 939.46
303.15 K, x2 = 0.0689 | 934.59
303.15 K, x2 = 0.1354 | 929.93
303.15 K, x2 = 0.2037 | 925.19
303.15 K, x2 = 0.2701 | 920.6
303.15 K, x2 = 0.3387 | 915.87
303.15 K, x2 = 0.407 | 911.17
303.15 K, x2 = 0.4735 | 906.6
303.15 K, x2 = 0.5403 | 901.98
303.15 K, x2 = 0.6054 | 897.43
303.15 K, x2 = 0.6791 | 892.23
303.15 K, x2 = 0.7441 | 887.56
303.15 K, x2 = 0.81 | 882.75
303.15 K, x2 = 0.8741 | 877.97
303.15 K, x2 = 0.9245 | 874.12
303.15 K, x2 = 0.9784 | 869.92
313.15 K, x2 = 0 | 930.12
313.15 K, x2 = 0.0655 | 925.37
313.15 K, x2 = 0.1357 | 920.35
313.15 K, x2 = 0.2019 | 915.66
313.15 K, x2 = 0.2684 | 910.98
313.15 K, x2 = 0.336 | 906.21
313.15 K, x2 = 0.4063 | 901.26
313.15 K, x2 = 0.4726 | 896.57
313.15 K, x2 = 0.5367 | 892.03
313.15 K, x2 = 0.6038 | 887.24
313.15 K, x2 = 0.6792 | 881.8
313.15 K, x2 = 0.738 | 877.51
313.15 K, x2 = 0.8119 | 872.03
313.15 K, x2 = 0.873 | 867.4
313.15 K, x2 = 0.9314 | 862.88
313.15 K, x2 = 0.98 | 859.02
323.15 K, x2 = 0 | 920.55
323.15 K, x2 = 0.0785 | 914.76
323.15 K, x2 = 0.1359 | 910.58
323.15 K, x2 = 0.2021 | 905.79
323.15 K, x2 = 0.2687 | 901.01
323.15 K, x2 = 0.3364 | 896.14
323.15 K, x2 = 0.4066 | 891.09
323.15 K, x2 = 0.4735 | 886.28
323.15 K, x2 = 0.5415 | 881.37
323.15 K, x2 = 0.6092 | 876.44
323.15 K, x2 = 0.6736 | 871.72
323.15 K, x2 = 0.7453 | 866.4
323.15 K, x2 = 0.8089 | 861.6
323.15 K, x2 = 0.8797 | 856.16
323.15 K, x2 = 0.9374 | 851.62
323.15 K, x2 = 0.9777 | 848.38
333.15 K, x2 = 0 | 910.75
333.15 K, x2 = 0.0695 | 905.54
333.15 K, x2 = 0.1354 | 900.67
333.15 K, x2 = 0.2026 | 895.73
333.15 K, x2 = 0.2701 | 890.79
333.15 K, x2 = 0.3321 | 886.27
333.15 K, x2 = 0.4042 | 881.01
333.15 K, x2 = 0.475 | 875.82
333.15 K, x2 = 0.5487 | 870.41
333.15 K, x2 = 0.6014 | 866.51
333.15 K, x2 = 0.6758 | 860.97
333.15 K, x2 = 0.7371 | 856.36
333.15 K, x2 = 0.8142 | 850.48
333.15 K, x2 = 0.8809 | 845.28
333.15 K, x2 = 0.9398 | 840.58
333.15 K, x2 = 0.9785 | 837.43
343.15 K, x2 = 0 | 900.73
343.15 K, x2 = 0.0577 | 896.35
343.15 K, x2 = 0.1155 | 892
343.15 K, x2 = 0.1728 | 887.74
343.15 K, x2 = 0.2388 | 882.84
343.15 K, x2 = 0.299 | 878.39
343.15 K, x2 = 0.3652 | 873.49
343.15 K, x2 = 0.4202 | 869.41
343.15 K, x2 = 0.504 | 863.2
343.15 K, x2 = 0.5606 | 858.98
343.15 K, x2 = 0.6275 | 853.95
343.15 K, x2 = 0.6963 | 848.75
343.15 K, x2 = 0.7585 | 844
343.15 K, x2 = 0.8187 | 839.33
343.15 K, x2 = 0.8814 | 834.39
343.15 K, x2 = 0.9584 | 828.16

CCc1ccccc1 [ethylbenzene] + CN(C)C=O
Conditions | mass density [kg/m3]
293.15 K, x1 = 0.0514 | 942.69
293.15 K, x1 = 0.1124 | 936.07
293.15 K, x1 = 0.1754 | 929.58
293.15 K, x1 = 0.2451 | 922.8
293.15 K, x1 = 0.3102 | 916.81
293.15 K, x1 = 0.3754 | 911.11
293.15 K, x1 = 0.4514 | 904.81
293.15 K, x1 = 0.5214 | 899.3
293.15 K, x1 = 0.5862 | 894.43
293.15 K, x1 = 0.6478 | 890
293.15 K, x1 = 0.7012 | 886.28
293.15 K, x1 = 0.7658 | 881.94
293.15 K, x1 = 0.8214 | 878.33
293.15 K, x1 = 0.8845 | 874.33
293.15 K, x1 = 0.9451 | 870.6
293.15 K, x1 = 1 | 867.28
303.15 K, x1 = 0.0562 | 933.08
303.15 K, x1 = 0.1141 | 926.82
303.15 K, x1 = 0.1865 | 919.45
303.15 K, x1 = 0.2451 | 913.8
303.15 K, x1 = 0.3065 | 908.15
303.15 K, x1 = 0.375 | 902.18
303.15 K, x1 = 0.4354 | 897.14
303.15 K, x1 = 0.4952 | 892.39
303.15 K, x1 = 0.5685 | 886.81
303.15 K, x1 = 0.6284 | 882.45
303.15 K, x1 = 0.7025 | 877.28
303.15 K, x1 = 0.7654 | 873.05
303.15 K, x1 = 0.8251 | 869.17
303.15 K, x1 = 0.8821 | 865.57
303.15 K, x1 = 0.9422 | 861.86
303.15 K, x1 = 1 | 858.36
313.15 K, x1 = 0.0684 | 922.45
313.15 K, x1 = 0.1151 | 917.46
313.15 K, x1 = 0.1855 | 910.34
313.15 K, x1 = 0.2525 | 903.93
313.15 K, x1 = 0.3101 | 898.69
313.15 K, x1 = 0.3852 | 892.2
313.15 K, x1 = 0.4421 | 887.51
313.15 K, x1 = 0.5012 | 882.85
313.15 K, x1 = 0.5688 | 877.74
313.15 K, x1 = 0.6211 | 873.93
313.15 K, x1 = 0.6855 | 869.42
313.15 K, x1 = 0.7451 | 865.39
313.15 K, x1 = 0.8021 | 861.65
313.15 K, x1 = 0.8654 | 857.62
313.15 K, x1 = 0.9325 | 853.47
313.15 K, x1 = 1 | 849.38
323.15 K, x1 = 0.0463 | 915.35
323.15 K, x1 = 0.1125 | 908.29
323.15 K, x1 = 0.1785 | 901.64
323.15 K, x1 = 0.2462 | 895.17
323.15 K, x1 = 0.312 | 889.22
323.15 K, x1 = 0.3745 | 883.85
323.15 K, x1 = 0.4352 | 878.85
323.15 K, x1 = 0.4952 | 874.12
323.15 K, x1 = 0.5552 | 869.58
323.15 K, x1 = 0.6125 | 865.41
323.15 K, x1 = 0.6784 | 860.79
323.15 K, x1 = 0.7451 | 856.29
323.15 K, x1 = 0.8021 | 852.57
323.15 K, x1 = 0.8666 | 848.48
323.15 K, x1 = 0.9451 | 843.65
323.15 K, x1 = 1 | 840.35
333.15 K, x1 = 0.0548 | 904.7
333.15 K, x1 = 0.1241 | 897.45
333.15 K, x1 = 0.1852 | 891.41
333.15 K, x1 = 0.2451 | 885.77
333.15 K, x1 = 0.3021 | 880.64
333.15 K, x1 = 0.3625 | 875.45
333.15 K, x1 = 0.4255 | 870.27
333.15 K, x1 = 0.4954 | 864.79
333.15 K, x1 = 0.5621 | 859.79
333.15 K, x1 = 0.6215 | 855.53
333.15 K, x1 = 0.6865 | 851.02
333.15 K, x1 = 0.7451 | 847.11
333.15 K, x1 = 0.8002 | 843.53
333.15 K, x1 = 0.8621 | 839.62
333.15 K, x1 = 0.9351 | 835.15
333.15 K, x1 = 1 | 831.25
343.15 K, x1 = 0.0689 | 893.27
343.15 K, x1 = 0.132 | 886.83
343.15 K, x1 = 0.1952 | 880.71
343.15 K, x1 = 0.2621 | 874.55
343.15 K, x1 = 0.3262 | 868.95
343.15 K, x1 = 0.3865 | 863.91
343.15 K, x1 = 0.4461 | 859.15
343.15 K, x1 = 0.5121 | 854.09
343.15 K, x1 = 0.5685 | 849.94
343.15 K, x1 = 0.6332 | 845.36
343.15 K, x1 = 0.7095 | 840.17
343.15 K, x1 = 0.7651 | 836.53
343.15 K, x1 = 0.8221 | 832.9
343.15 K, x1 = 0.8858 | 828.96
343.15 K, x1 = 0.9514 | 824.99
343.15 K, x1 = 1 | 822.11
353.15 K, x1 = 0.0458 | 885.55
353.15 K, x1 = 0.1112 | 878.86
353.15 K, x1 = 0.1784 | 872.35
353.15 K, x1 = 0.2351 | 867.13
353.15 K, x1 = 0.2965 | 861.72
353.15 K, x1 = 0.3589 | 856.48
353.15 K, x1 = 0.4152 | 851.94
353.15 K, x1 = 0.4784 | 847.06
353.15 K, x1 = 0.5321 | 843.06
353.15 K, x1 = 0.5962 | 838.48
353.15 K, x1 = 0.6748 | 833.09
353.15 K, x1 = 0.7451 | 828.47
353.15 K, x1 = 0.8032 | 824.77
353.15 K, x1 = 0.8745 | 820.37
353.15 K, x1 = 0.9548 | 815.56
353.15 K, x1 = 1 | 812.9
